Experimental data reported in patent publication US20160318987A1 (MEDIMMUNE LIMITED, priority 2013, published 2016).
“Also recorded” adds a separate entry of the source. Where a SMILES comes first, the peptide text is derived from it. [ ]: non-standard residue; d: D form. αMeF = C[C@](N)(Cc1ccccc1)C(=O)O; Aib = CC(C)(N)C(=O)O

Columns and labels:
Neprilysin (rhNEP) = target: T1, Neprilysin (rhNEP) (Homo sapiens, UniProt P08473); assay: neprilysin stability study (LC/MS); format: in vitro ADME
T1 construct: purchased R&D Systems 1182-ZNC-010
Procedure: (§1) Peptides for evaluation were prepared to a concentration of 1.0 mg/mL solutions in either pure water, sterile saline for injection (0.9% w/v NaCl/water) or 1× PBS (Dulbecco). 100 μL (100 μg/mL peptide) of these solutions was added to 900 μL of each protease solution. Additional experiments were performed examining protein degradation during exposure to serum and gastric fluid. For serum studies, peptides were incubated with 50% female Sprague-Dawley strain rat serum (SD rat serum). For gastric fluid studies, peptides were incubated 1:1 (volume:volume), fresh rat gastric fluid.
(§2) The peptide and enzyme (or serum or gastric fluid) were co-incubated in a temperature regulated water bath at 37° C. for the duration of the experiment. During each experiment 100 μL aliquots (10 μg peptide) of the incubated peptide-enzyme mixture were withdrawn periodically, quenched by addition of an equal volume of 5% TFA (v/v) in 1:1 water/acetonitrile to arrest proteolytic activity, and analyzed by liquid chromatography-mass spectrometry (LC/MS): Agilent Polaris C8-A column (4.6×100 mm, 3 micron) using a linear binary gradient of 10-90% MeCN (0.1% TFA v/v) in water (0.1% TFA v/v) over 30 minutes at 1.5 mL min^−1 at ambient temperature. Analytes were detected by both UV absorption at 210 nm and ionization using a Waters 3100 mass detector (ESI^+ mode). New peptidic species (fragments) derived from enzymatic cleavage of peptides were analyzed post-process, and their molecular masses were used to identify the precise cleavage position (highlighting the scissile bond in each case).

hGIP-R = target: T2, hGIP-R (Homo sapiens, UniProt P48546); assay: cAMP functional assay, cells expressing human GIP receptor (primary assay); format: cell-based; conditions: n = 2
T2 construct: expressed in transfected cells
T2 sequence (P48546 22-466): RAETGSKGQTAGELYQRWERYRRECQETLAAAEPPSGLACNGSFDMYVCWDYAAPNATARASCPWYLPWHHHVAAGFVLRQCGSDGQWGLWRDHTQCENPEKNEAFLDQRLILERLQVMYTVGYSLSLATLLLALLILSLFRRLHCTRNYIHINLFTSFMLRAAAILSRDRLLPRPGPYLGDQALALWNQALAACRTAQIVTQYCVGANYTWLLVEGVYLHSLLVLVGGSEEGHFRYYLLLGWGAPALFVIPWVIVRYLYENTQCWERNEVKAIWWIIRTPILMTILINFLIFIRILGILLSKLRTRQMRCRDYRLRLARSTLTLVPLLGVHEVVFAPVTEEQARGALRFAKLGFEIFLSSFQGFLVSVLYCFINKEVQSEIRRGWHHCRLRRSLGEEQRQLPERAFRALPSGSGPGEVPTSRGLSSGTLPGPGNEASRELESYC

Chymotrypsin (rhCTRC) [1] = target: T3, Chymotrypsin (rhCTRC) (Homo sapiens, UniProt Q99895); assay: chymotrypsin stability study (LC/MS); format: in vitro ADME; conditions: chymotrypsin
T3 construct: purchased R&D Systems 6907-SE-010
T3 sequence (Q99895 30-268): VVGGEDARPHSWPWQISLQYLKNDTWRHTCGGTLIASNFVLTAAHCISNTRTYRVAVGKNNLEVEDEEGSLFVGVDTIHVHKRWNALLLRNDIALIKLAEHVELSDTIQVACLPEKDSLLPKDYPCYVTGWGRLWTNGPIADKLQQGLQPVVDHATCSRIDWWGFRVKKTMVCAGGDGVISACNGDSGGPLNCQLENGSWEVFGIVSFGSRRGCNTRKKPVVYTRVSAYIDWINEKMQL
Procedure: as §1, §2

[2] = serum stability study (LC/MS); format: in vitro ADME; conditions: female, Sprague-Dawley; 50% SD rat serum, after 60 hours; read-out: peptide remaining intact
Procedure: as §1
as §2, with “New peptidic species (fragments) derived from enzymatic cleavage of peptides were analyzed post-process, and their molecular masses were used to identify the precise cleavage position (highlighting the scissile bond in each case).” left out

hGLP-1R = target: T4, hGLP-1R (Homo sapiens, UniProt P43220); assay: cAMP functional assay, cells expressing human GLP-1 receptor (primary assay); format: cell-based
T4 construct: expressed in transfected cells

[3] = target: T5, trypsin from porcine pancreas (Sus scrofa, UniProt P00761); assay: trypsin stability study (LC/MS); format: in vitro ADME
T5 construct: purchased Sigma P7409; host or cells: porcine pancreas
Procedure: as §1, §2

[4] = test system: Trypsin, Sigma P7409 (Type II-S); assay: 1 mg/mL lyophilized trypsin from porcine pancreas in 50 mM Tris, 10 mM CaCl2, 150 mM NaCl, 1 mM HCl, pH 7.8; conditions: 37° C., up to over 18 hours
Trypsin = assay: as above; conditions: 37° C., up to over 18 hours
Chymotrypsin (rhCTRC) [5] = assay: 1.0 μg rhCTRC in 900 μL assay buffer: 50 mM Tris, 10 mM CaCl2, 150 mM NaCl, 1 mM HCl, pH 7.8; conditions: 37° C., up to over 60 hours
[6] = test system: Neprilysin (Neutral endopeptidase, rhNEP); assay: 1.0 μg rhNEP in 900 μL assay buffer: 50 mM Tris, 50 mM NaCl, 50 mM NaHCO3, pH 8.3; conditions: 37° C., up to 240 hours

T1 sequence (P08473 52-750 limits assumed): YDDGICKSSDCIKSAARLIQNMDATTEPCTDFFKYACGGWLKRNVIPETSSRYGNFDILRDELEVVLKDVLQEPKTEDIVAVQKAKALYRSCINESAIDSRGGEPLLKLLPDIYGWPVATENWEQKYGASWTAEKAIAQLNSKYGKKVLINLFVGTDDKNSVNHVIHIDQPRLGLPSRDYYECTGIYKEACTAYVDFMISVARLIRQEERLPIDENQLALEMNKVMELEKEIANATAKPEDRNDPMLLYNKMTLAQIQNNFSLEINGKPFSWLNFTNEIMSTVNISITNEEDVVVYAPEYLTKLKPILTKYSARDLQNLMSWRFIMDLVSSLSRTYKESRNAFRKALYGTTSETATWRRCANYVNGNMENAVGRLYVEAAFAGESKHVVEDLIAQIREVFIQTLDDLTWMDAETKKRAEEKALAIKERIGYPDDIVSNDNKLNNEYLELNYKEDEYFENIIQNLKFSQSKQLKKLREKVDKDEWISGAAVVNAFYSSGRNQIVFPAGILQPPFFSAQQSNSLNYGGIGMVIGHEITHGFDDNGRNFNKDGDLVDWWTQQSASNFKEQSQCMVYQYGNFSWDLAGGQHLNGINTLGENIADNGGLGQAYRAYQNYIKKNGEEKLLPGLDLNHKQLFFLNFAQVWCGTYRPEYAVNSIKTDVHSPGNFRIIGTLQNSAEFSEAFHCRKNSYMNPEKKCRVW
T5 sequence (P00761 9-231): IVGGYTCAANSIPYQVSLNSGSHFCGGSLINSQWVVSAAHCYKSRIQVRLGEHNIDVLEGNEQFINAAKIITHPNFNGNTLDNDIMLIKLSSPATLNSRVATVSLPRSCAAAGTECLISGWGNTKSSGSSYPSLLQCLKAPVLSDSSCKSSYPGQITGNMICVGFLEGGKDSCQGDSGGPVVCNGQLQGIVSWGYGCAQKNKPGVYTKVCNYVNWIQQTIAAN
T4 sequence (P43220 24-463): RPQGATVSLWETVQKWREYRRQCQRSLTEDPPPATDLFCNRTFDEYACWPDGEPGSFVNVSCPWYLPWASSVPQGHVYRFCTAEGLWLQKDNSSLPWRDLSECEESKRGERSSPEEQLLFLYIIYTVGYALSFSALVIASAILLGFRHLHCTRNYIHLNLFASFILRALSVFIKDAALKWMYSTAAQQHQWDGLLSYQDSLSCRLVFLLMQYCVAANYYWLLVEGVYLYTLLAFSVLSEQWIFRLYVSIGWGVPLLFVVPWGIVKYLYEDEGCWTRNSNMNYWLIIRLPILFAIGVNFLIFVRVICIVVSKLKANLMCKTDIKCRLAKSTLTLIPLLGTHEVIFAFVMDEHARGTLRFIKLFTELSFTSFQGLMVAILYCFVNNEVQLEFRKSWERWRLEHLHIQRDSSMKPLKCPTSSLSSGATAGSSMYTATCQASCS

Compound: CC[C@H](C)[C@H](NC(=O)[C@](C)(Cc1ccccc1)NC(=O)[C@H](CCC(=O)O)NC(=O)[C@H](CCCCN)NC(=O)[C@H](C)NC(=O)[C@H](C)NC(=O)[C@H](CCC(N)=O)NC(=O)CNC(=O)[C@H](CCC(=O)O)NC(=O)[C@H](CC(C)C)NC(=O)[C@](C)(Cc1ccccc1)NC(=O)[C@H](CO)NC(=O)[C@H](CO)NC(=O)[C@@H](NC(=O)[C@H](CC(=O)O)NC(=O)[C@H](CO)NC(=O)[C@@H](NC(=O)[C@](C)(Cc1ccccc1)NC(=O)[C@H](CO)NC(=O)CNC(=O)[C@H](CCC(=O)O)NC(=O)C(C)(C)NC(=O)[C@@H](N)Cc1c[nH]cn1)[C@@H](C)O)C(C)C)C(=O)N[C@@H](C)C(=O)N[C@@](C)(Cc1ccccc1)C(=O)N[C@@H](CC(C)C)C(=O)N[C@H](C(=O)N[C@@H](CCCCN)C(=O)NCC(=O)N[C@@H](CCCNC(=N)N)C(N)=O)C(C)C [SEQ ID NO: 38, H-(Aib)^2-EG-(S)^5-(α-MeF)^6-TSDV^10 SS-(α-MeF)^13-LE^15 GQAAK^20 E-(α-MeF)^22-IA-(α-MeF)^25 LVKGR^30] (H-H[Aib]EGS[αMeF]TSDVSS[αMeF]LEGQAAKE[αMeF]IA[αMeF]LVKGR-NH2)
- Neprilysin resistance (Discussion / Description) (Neprilysin (rhNEP); Table 2 description): fully Neprilysin resistant but
- proteolytic degradation over time-course (Neprilysin (rhNEP); neprilysin, 96 hour time-course): no proteolytic degradation
- stability after prolonged exposure (Neprilysin (rhNEP); neprilysin, after 10 days (240 hours)): still stable
- EC50 (hGIP-R): 102 nM
- cleavage site observed (Chymotrypsin (rhCTRC) [1]): solely at the Leu26/Val27
- time by which degradation occurred (Chymotrypsin (rhCTRC) [1]; 37° C.): ≤ 48 h
- remaining at 60 h, 100 μg/mL [2]: ~64%
- potency compared to the GLP-1 comparator peptide, SEQ ID NO:4 (hGLP-1R): equipotent
- EC50 (hGLP-1R; n = 2): 0.0338 nM
- Trypsin resistance/susceptibility (Discussion / Description) ([3]; Table 2 description): Trypsin susceptibility
- time by which proteolytic degradation occurred (carboxyl side of Lys20, Lys28 and Arg30) ([3]; trypsin, 37° C.): ≤ 90 min

Compound: H-(Aib)^2-EG-(S)^5-(α-MeF)^6-TSDV^10 SS-(α-MeF)^13-LE^15 GQAAK^20 E-(α-MeF)^22-IA-(α-MeF)^25 L-(Aib)^27-K-(Aib)^29-R^30
- not cleaved [4]: intact

Compound: H-(Aib)^2-EG-(S)^5-(α-MeF)^6-TSDV^10 SS-(α-MeF)^13-LE^15 GQAAK^20 E-(α-MeF)^22-IA-(α-MeF)^25 LVKGR^30
- cleaved bond (Trypsin): Lys20-E21, by 90 minutes; also recorded: Lys28-G29, by 90 minutes
- cleaved bond (Chymotrypsin (rhCTRC) [5]): Leu26-Val27, by 48 hours
- not cleaved [6]: no proteolytic degradation over a 96 hour time-course; still stable after 10 days
